Reference: patent publication US9951064B2, “Azaindazole compounds as inhibitors of T790M containing EGFR mutants” (Genentech, Inc., priority 2013, dated 2018)
Values belong to the molecule of their own block, whether it stands above or below them.

How the values were obtained:
EGFR T790M L858R = target: T1, EGFR T790M L858R (Homo sapiens, UniProt P00533, L858R/T790M); test: EGFR T790M L858R biochemical assay (Caliper mobility shift); details: 5 μM ATP; apparent Ki (Morrison fit) converted by Cheng-Prusoff, Km of ATP 1.3 μM
T1 construct: purchased Life Technologies PV4879
T1 sequence (P00533 25-1210 T790M/L858R): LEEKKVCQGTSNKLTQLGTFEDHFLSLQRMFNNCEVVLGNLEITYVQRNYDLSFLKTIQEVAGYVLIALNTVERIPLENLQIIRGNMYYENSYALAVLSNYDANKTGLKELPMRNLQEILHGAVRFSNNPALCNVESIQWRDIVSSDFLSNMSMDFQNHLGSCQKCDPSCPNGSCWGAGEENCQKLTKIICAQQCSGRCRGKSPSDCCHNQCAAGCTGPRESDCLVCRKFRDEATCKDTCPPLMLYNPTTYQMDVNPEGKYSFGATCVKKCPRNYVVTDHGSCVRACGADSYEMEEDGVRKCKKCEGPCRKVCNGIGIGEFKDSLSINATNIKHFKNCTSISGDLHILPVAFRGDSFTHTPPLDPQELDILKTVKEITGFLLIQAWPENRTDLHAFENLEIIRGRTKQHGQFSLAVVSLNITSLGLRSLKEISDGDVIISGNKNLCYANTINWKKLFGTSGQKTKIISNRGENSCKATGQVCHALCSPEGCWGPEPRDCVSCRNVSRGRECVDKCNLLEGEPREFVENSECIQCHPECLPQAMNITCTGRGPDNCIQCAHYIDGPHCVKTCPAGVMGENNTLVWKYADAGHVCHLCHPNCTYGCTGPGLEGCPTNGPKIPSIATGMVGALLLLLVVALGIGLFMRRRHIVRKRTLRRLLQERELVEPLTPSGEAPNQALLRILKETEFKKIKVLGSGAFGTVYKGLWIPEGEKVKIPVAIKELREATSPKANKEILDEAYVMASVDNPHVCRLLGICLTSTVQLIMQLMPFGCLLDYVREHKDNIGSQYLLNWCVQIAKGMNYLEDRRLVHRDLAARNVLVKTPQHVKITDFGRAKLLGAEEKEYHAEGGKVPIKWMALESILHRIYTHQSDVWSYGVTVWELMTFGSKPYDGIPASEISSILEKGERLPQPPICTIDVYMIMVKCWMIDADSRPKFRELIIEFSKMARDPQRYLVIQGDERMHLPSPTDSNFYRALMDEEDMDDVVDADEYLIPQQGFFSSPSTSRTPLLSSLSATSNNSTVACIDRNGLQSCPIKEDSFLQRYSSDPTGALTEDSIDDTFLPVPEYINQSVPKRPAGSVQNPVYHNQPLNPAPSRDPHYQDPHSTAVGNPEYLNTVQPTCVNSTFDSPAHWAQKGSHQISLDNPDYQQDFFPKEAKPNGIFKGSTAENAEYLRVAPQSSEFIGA
In short: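 Reactions run 30 minutes at room temperature (22 °C), stopped with 80 mM EDTA. Phosphorylated product and substrate separated electrophoretically and quantified by Caliper mobility shift.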

EGFR del746-750 T790M = target: T2, EGFR del746-750 T790M (Homo sapiens, UniProt P00533, DEL746-750/T790M); test: EGFR del746-750 T790M biochemical assay (Caliper mobility shift); details: 5 μM ATP; apparent Ki (Morrison fit) converted by Cheng-Prusoff, Km of ATP 2.1 μM; read-out: EGFR(T790M/d746-750) Ki
T2 construct: purchased Carna Biosciences 08-528
T2 sequence (P00533 with tags, fused parts or gaps DEL746-750/T790M limits assumed): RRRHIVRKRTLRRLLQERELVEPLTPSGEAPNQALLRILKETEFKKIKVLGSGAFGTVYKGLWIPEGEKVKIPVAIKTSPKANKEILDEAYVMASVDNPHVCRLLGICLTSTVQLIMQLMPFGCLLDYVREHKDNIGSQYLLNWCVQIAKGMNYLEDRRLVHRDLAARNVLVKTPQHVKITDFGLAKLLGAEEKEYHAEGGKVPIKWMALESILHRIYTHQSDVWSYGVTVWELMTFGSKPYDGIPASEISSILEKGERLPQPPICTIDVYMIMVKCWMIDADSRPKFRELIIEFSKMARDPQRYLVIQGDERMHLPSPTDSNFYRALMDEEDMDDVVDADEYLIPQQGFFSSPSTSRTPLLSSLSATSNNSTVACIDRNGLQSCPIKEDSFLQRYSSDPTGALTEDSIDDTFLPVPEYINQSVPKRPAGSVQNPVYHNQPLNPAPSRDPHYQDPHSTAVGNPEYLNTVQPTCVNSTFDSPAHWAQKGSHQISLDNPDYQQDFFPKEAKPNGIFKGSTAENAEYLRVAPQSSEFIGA
In short: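 Kinase reactions ran 30 min at room temperature (22 °C), then were stopped with 80 mM EDTA. Phosphorylated product and substrate were separated electrophoretically and quantified by Caliper mobility shift.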

[1] = target: T3, phosphor-EGFR in H1975(L585R/T790M) mutant EGFR expressing cells (Homo sapiens, UniProt P00533, L858R/T790M); test: H1975 pEGFR MSD cellular assay; assay type: cell-based; details: NCI-H1975 cells, serum starved, 1 hour compound incubation, pEGFR Tyr1068 MSD; read-out: HI975 pEGFR EC50
T3 construct: host or cells: NCI-H1975
T3 sequence (P00533 25-1210 T790M/L858R): as the sequence (P00533 25-1210 T790M/L858R) above
In short: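 NCI-H1975 cells, 30,000/well, serum-starved overnight, then treated 1 hour at 37° C with serially diluted compounds in serum-free medium (0.5% DMSO). Lysates captured on anti-phospho-EGFR plates overnight at 4° C, detected with SULFO-TAG anti-total EGFR by electrochemiluminescence. Inhibition vs untreated controls; EC50 from 4-parameter logistic fit.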

[2] = tested on: H1975 (EGFR T790M/L858R) cell proliferation; test: H1975 proliferation assay (Cell Titer-Glo); assay type: cell-based; details: Homo sapiens, NCI-H1975, 72 h, NCI-H1975 cells, 72 hour incubation, read-out: H1975 antiproliferative EC50
Experimental: H1975 Proliferation Assays
All cell culture reagents were purchased from Invitrogen/Gibco. Cells are cultured at 37° C. at 5% CO2 and split as recommended by ATCC.

SMILES: CCC(C)n1nc(N2CCCC2=O)c2cnc(Nc3ccnc(N4CCC(C)(O)CC4)n3)cc21 (stereo not drawn) [Example 204, 1-(1-(sec-Butyl)-6-((2-(4-hydroxy-4-methylpiperidin-1-yl)pyrimidin-4-yl)amino)-1H-pyrazolo[4,3-c]pyridin-3-yl)pyrrolidin-2-one]
Ki (EGFR T790M L858R): 0.0022 µM
Ki (EGFR del746-750 T790M): 0.0045 µM
EC50 [1]: 0.224 µM
EC50 [2]: 0.569 µM

SMILES: CC(C)n1nc(N2CC3(C2)C[S+]([O-])C3)c2cnc(Nc3ccnc(N4CCC(C)(O)CC4)n3)cc21 [Example 138, 6-(6-((2-(4-Hydroxy-4-methylpiperidin-1-yl)pyrimidin-4-yl)amino)-1-isopropyl-1H-pyrazolo[4,3-c]pyridin-3-yl)-2-thia-6-azaspiro[3.3]heptane 2-oxide]
Ki (EGFR T790M L858R): 0.0046 µM
Ki (EGFR del746-750 T790M): 0.0196 µM
EC50 [1]: 1.41 µM
EC50 [2]: 3.91 µM

SMILES: CC[C@H](C)n1nc(N2CC3(COC3)C2)c2cnc(Nc3ccnc(N4CC[C@](C)(O)[C@H](F)C4)n3)cc21 (relative stereo) [Example 65, (3R*,4S*)-1-{4-[1-((S)-sec-Butyl)-3-(2-oxa-6-azaspiro[3.3]hept-6-yl)-1H-pyrazolo[4,3-c]pyridin-6-ylamino]pyrimidin-2-yl}-3-fluoro-4-methylpiperidin-4-ol]
Ki (EGFR T790M L858R): 0.0036 µM
Ki (EGFR del746-750 T790M): 0.0096 µM
EC50 [1]: 0.126 µM
EC50 [2]: 0.874 µM

SMILES: CC(C)n1nc(N2CC(C(C)(C)C#N)C2)c2cnc(Nc3ccnc(-c4cnn(S(=O)(=O)C5CC5)c4)n3)cc21 [Example 153, 2-(1-(6-(2-(1-(Cyclopropylsulfonyl)-1H-pyrazol-4-yl)pyrimidin-4-ylamino)-1-isopropyl-1H-pyrazolo[4,3-c]pyridin-3-yl)azetidin-3-yl)-2-methylpropanenitrile]
Ki (EGFR T790M L858R): 0.0021 µM
Ki (EGFR del746-750 T790M): 0.0019 µM
EC50 [1]: 0.133 µM
EC50 [2]: 1.38 µM

Stronger by Ki (EGFR T790M L858R), values ahead:

Ki (EGFR T790M L858R): 0.0019 µM
Ki (EGFR del746-750 T790M): 0.0019 µM
EC50 [1]: 0.0956 µM
EC50 [2]: 0.193 µM
SMILES: CC(C)n1nc(N2CC(C(=O)NCC(F)(F)F)C2)c2cnc(Nc3ccnc(-c4cnn(S(=O)(=O)C5CC5)c4)n3)cc21 [Example 165, 1-(6-(2-(1-(Cyclopropylsulfonyl)-1H-pyrazol-4-yl)pyrimidin-4-ylamino)-1-isopropyl-1H-pyrazolo[4,3-c]pyridin-3-yl)-N-(2,2,2-trifluoroethyl)azetidine-3-carboxamide]

Ki (EGFR T790M L858R): 0.0018 µM
Ki (EGFR del746-750 T790M): 0.0025 µM
EC50 [1]: 0.0223 µM
EC50 [2]: 0.225 µM
SMILES: CC(C)n1nc(N2CC[C@@H](O)C2)c2cnc(Nc3ccnc(N4C[C@@H](F)[C@@H](O)C(C)(C)C4)n3)cc21 (racemic) [Example 148, cis-5-Fluoro-1-(4-(3-((R)-3-hydroxypyrrolidin-1-yl)-1-isopropyl-1H-pyrazolo[4,3-c]pyridin-6-ylamino)pyrimidin-2-yl)-3,3-dimethylpiperidin-4-ol]

Ki (EGFR T790M L858R): 0.0017 µM
Ki (EGFR del746-750 T790M): 0.0043 µM
EC50 [1]: 0.15 µM
EC50 [2]: 0.332 µM
SMILES: CC(C)n1nc(N2CCCC2=O)c2cnc(Nc3ccnc(N4CC[C@H](O)[C@H](F)C4)n3)cc21 (racemic) [Example 133, (±)-1-(6-(2-(cis-3-Fluoro-4-hydroxypiperidin-1-yl)pyrimidin-4-ylamino)-1-isopropyl-1H-pyrazolo[4,3-c]pyridin-3-yl)pyrrolidin-2-one]

Ki (EGFR T790M L858R): 0.0016 µM
Ki (EGFR del746-750 T790M): 0.0019 µM
EC50 [1]: 0.0716 µM
EC50 [2]: 0.404 µM
SMILES: CC(C)n1nc(N2CCC(C)(O)C2)c2cnc(Nc3ccnc(N4CC[C@@H](O)[C@@H](F)C4)n3)cc21 (relative stereo) [Example 104, (3S*,4R*)-3-fluoro-1-(4-((3-(3-hydroxy-3-methylpyrrolidin-1-yl)-1-isopropyl-1H-pyrazolo[4,3-c]pyridin-6-yl)amino)pyrimidin-2-yl)piperidin-4-ol]

Ki (EGFR T790M L858R): 0.0012 µM
Ki (EGFR del746-750 T790M): 0.0027 µM
EC50 [1]: 0.129 µM
EC50 [2]: 0.213 µM
SMILES: CC(C)n1nc(N2CCC(O)C2)c2cnc(Nc3ccnc(N4CC[C@@H](O)[C@@H](F)C4)n3)cc21 (single isomer, unassigned) [Example 105, (3S*,4R*)-3-fluoro-1-(4-((3-((R)-3-hydroxypyrrolidin-1-yl)-1-isopropyl-1H-pyrazolo[4,3-c]pyridin-6-yl)amino)pyrimidin-2-yl)piperidin-4-ol]
